Measured values reported in the METLIN SMRT retention time set (Domingo-Almenara et al. 2019).

Assay: gradient 5% acetonitrile 3 min, to 50% in 2 min, to 85% in 15 min, held 3 min, 100 µL/min
Conditions: column: Zorbax Extend-C18 2.1 x 50 mm; eluents: water / acetonitrile, 0.1% formic acid
Summary of the method: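 The mobile phases were water and acetonitrile, each with 0.1% formic acid, pumped at 100 μL/min through a Zorbax Extend-C18 column (2.1 × 50 mm, 1.8 μm). Pure standards were injected as mixtures of ~100 molecules and detected by a quadrupole time-of-flight mass spectrometer in positive and negative ionization mode. Retention time came from computationally picked adduct peaks, each inspected by hand.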

Compound	RP-LC retention time [s]
CC(C)c1ccc(NC(=O)C2CCCN(c3ncnc4c3oc3ccccc34)C2)cc1 (configuration not stated)	976
CCOc1cccc(CNC(=O)c2cn(C)nc2S(=O)(=O)N2CCSCC2)c1	889
CCn1cc(C2=CCN(S(=O)(=O)c3cccc(F)c3)CC2)c2cccnc21	1020
Cn1cc(CN2CCC(C(=O)N3CCCC3)CC2)c2cc(Cl)ccc21	631
CC(C)NC(=O)c1ccc(-c2nc3cc(NS(=O)(=O)c4cc(F)ccc4F)ccc3n2C)cc1	705
Cc1ccc(-c2nnc(Cc3nc(-c4ccc(C(F)(F)F)cc4)no3)o2)cc1F	1180
CNC(=O)Cc1csc(NC(=O)c2csc(Nc3cccc(C)n3)n2)n1	711
CCn1cc(CCNC(=O)c2ccc(OC)cc2)c2cccnc21	675
O=C(Nc1ccc(F)cc1)C1CC(=O)N(c2n[nH]c3cccc(F)c23)C1 (configuration not stated)	740
CCCCOc1ccc(-c2ccc(=O)n(Cc3nc(-c4cc(OC)c(OC)c(OC)c4)no3)n2)cc1	1200
O=C1NCCCn2cc(S(=O)(=O)NC3CCCCCC3)cc21	688
C=CCn1c(=O)c2sc(N(CC)CC)nc2n(CC(=O)Nc2c(C)cccc2C)c1=O	830
CCc1cc(=O)n(CC(=O)Nc2cccc(F)c2)c(N2CCOCC2)n1	763
Cc1c(Cl)cccc1NC(=O)CN1C(=O)NC2(CCCCC2)C1=O	779
CCN1CCC2(CC1)N=C(c1ccc(F)cc1)CC(c1cccc(OC)c1O)N2 (configuration not stated)	592
CCc1ccc2nc(Nc3ncc4c(n3)CC(c3ccccc3)CC4=O)nc(C)c2c1 (configuration not stated)	636
CN(C)C(=O)c1ccc2c(c1)N(CC(=O)N1CCCCC1)C(=O)C1CCCCN21 (configuration not stated)	701
Cc1nn(C)c(C)c1S(=O)(=O)N1CCC(c2noc(-c3ccccc3)n2)C1 (configuration not stated)	856
O=C(c1ccco1)N1CCN(c2ccc(-c3noc(C4CC4)n3)cc2)CC1	864
CCOCCCNC(=O)N1CC(Oc2ccc(-c3nc(C)no3)cc2)C1	724
CCCNc1cc(N2CCC(CCC(=O)NCc3c(C)nn(C)c3C)CC2)ncn1	594

Compound	RP-LC retention time [s]
CN(C)c1ccc(NC(=O)c2cn(-c3ccc(F)cc3)nn2)cc1	675
COc1ccc(-c2csc3c(=O)n(Cc4ccccc4)cnc23)cc1OC	948
CCn1cnc2ccc(-c3noc(COc4ccc(Cl)cc4)n3)cc21	815
Cc1nc(-c2cc(S(=O)(=O)N3CCCc4ccccc43)c(C)s2)sc1C	1290
COc1cccc(NC(=O)Cn2c(=O)c(CCC(=O)NCC(C)C)nc3ccccc32)c1	798
O=C(CCc1ccccc1)Nc1c(-c2ccccc2)nc2ccccn12	663
Cc1ccc(-c2nnc(-c3ccc(Cl)c(S(=O)(=O)N(C)C)c3)o2)cc1	1040
CCOC(=O)c1ccc(NS(=O)(=O)c2cc3n(c2)CCN(CC)C3=O)cc1	744
O=C1CCCN1CCCN1C(=O)[C@H]2CN(Cc3ccc(F)c(Cl)c3)C[C@H]2C1=O	599
Cc1ccc(CNC(=O)CC2CCOC3(CCN(S(C)(=O)=O)CC3)C2)o1 (configuration not stated)	705
O=C(NCc1nc(-c2ccccc2)no1)c1csc(-c2cnccn2)n1	779
CC1CCN(S(=O)(=O)c2ccc(-c3nnc(C4CCC4)o3)o2)CC1	1030
CC1=C(c2ccccc2)S(=O)(=O)N=C1N1CCCN(C(=O)C(C)(C)C)CC1	803
CCOc1ccc2ncc(C(=O)c3ccc(C)cc3)c(N3CCN(C)CC3)c2c1	561
O=C(NCC1CCN(Cc2cccs2)CC1)C1(c2ccccc2)CCOCC1	578
CCc1cccc(NC(=O)C2CCCN(S(=O)(=O)c3cc(-c4noc(CC)n4)cs3)C2)c1 (configuration not stated)	1090
CC(C)Cn1cc(S(=O)(=O)N2CCN(c3ccccc3Cl)CC2)c2cccnc21	1220
Cc1cc(C(=O)Nc2nnc(-c3cccs3)o2)no1	632
Cc1cc(-c2nc(C3CC3)no2)c(C)n1CC(=O)Nc1ccc(Cl)cc1	1020
CCNC(=O)c1nnn(-c2cccc(Cl)c2)c1-c1cccnc1	740
COc1ccc(S(=O)(=O)N2C[C@@H]3C[C@H]2C[C@@H]3NC(=O)c2cccs2)cc1Cl	792

The next lines start with the values.

RP-LC retention time [s]	Compound
851	CCCCC(=O)Nc1ccc2nc(N3CCN(c4cc(Cl)ccc4C)CC3)cc(C(=O)O)c2c1
913	COc1ccccc1CNC(=O)C1CCC(=O)N1S(=O)(=O)c1ccc(C)c(C)c1 (configuration not stated)
936	CCOC(=O)C1CCN(C(=O)C2CCN(S(=O)(=O)c3cc(Cl)ccc3OCC)CC2)CC1
608	Cc1ccccc1NC(=O)CN1CCc2[nH]c3c(C)cc(F)cc3c(=O)c2C1
1020	COc1cc(CC(=O)N2CCc3cc(-c4csc(C)n4)ccc32)cc(OC)c1
1000	O=C(Cn1nc(N2CCCC2)c2ccccc2c1=O)Nc1ccc(F)c(Cl)c1
734	COc1cc([C@H]2c3cc4c(cc3[C@@H](O)[C@H](CO)[C@H]2C(=O)N2CCCc3ccccc32)OCO4)cc(OC)c1OC
949	CCSc1nnc(-c2nn(C)c3c2CN(S(=O)(=O)c2cc(F)ccc2F)CC3)n1CC
1050	Cc1cccc(-c2nnc(-c3cc(S(=O)(=O)N(C)C)ccc3Cl)o2)c1
953	CCOc1ccc(S(=O)(=O)NCc2ccc3c(c2)CCN3C(=O)c2ccccc2)cc1
1140	Cc1sc(C)c(S(=O)(=O)NCc2ccccc2)c1-c1cc(C(F)(F)F)on1
771	CC(=O)c1cccc(C(=O)N2CCC3(CC2)NC(=O)N(Cc2cccc(Cl)c2)C3=O)c1
968	Cn1c(=O)n(Cc2ccc(Br)cc2F)c(=O)c2cnc(-c3cccnc3)nc21
652	CCCn1ccc2sc(C)c(C(=O)NCCOC)c2c1=O
835	CCOC(=O)c1c(S(=O)(=O)N2CCC(C(=O)NCc3ccc(F)cc3)CC2)c(C)n(CC)c1C
1080	O=C(NCCC1=CCCCC1)C1CCN(c2ncccc2S(=O)(=O)N2CCCCC2)CC1
675	COCC(C)(O)CNC(=O)C(=O)Nc1cccc(F)c1 (configuration not stated)
612	Cc1cc(C)n(-c2ccnc(N3CCC(C(=O)NCc4cccnc4)CC3)n2)n1
819	Cc1nc2cc(N3CC(C(=O)Nc4ccc(C)c(Cl)c4)CC3=O)ccc2o1 (configuration not stated)
694	Cc1noc(COC2CCN(C(=O)NCCc3ccccc3)CC2)n1
661	CCCNC(=O)N1CCN(Cc2nc(-c3ccc(OCC)cc3)oc2C)CC1
632	Cc1cccc(NC(=O)C2CCN(S(=O)(=O)c3cn(C(C)C)cn3)CC2)n1
846	CC(NC(=O)c1ccc(N(C)C)cc1)C(=O)N1CCCc2ccccc21 (configuration not stated)

RP-LC retention time [s]	Compound
715	COc1ccc(-c2cn3c(CC(=O)Nc4ccc(Cl)cn4)csc3n2)cc1OC
1050	Cc1cc(C)nc(SCC(=O)Nc2nc(-c3ccccc3)c(-c3ccccc3)o2)n1
749	CNC(=O)c1cc(COc2nnc(Nc3ccc(Cl)cc3)c3ccoc23)ccn1
808	Cc1cc(-c2nnc(-c3ccc(F)cc3)o2)c(C)n1CC(=O)N1CCCC1
906	O=C(Nc1ccc(N2CCN(c3ccccc3)C2=O)nc1)c1ccccc1
638	COc1ccc(C2CC(=O)c3c(C)nc(N4CCN(CCO)CC4)nc3C2)cc1 (configuration not stated)
739	Cc1ccc(C(C)C)cc1S(=O)(=O)Nc1cccc(-c2cn3ccccc3n2)c1
584	CCc1ccccc1NC(=O)Cn1c(N)nc(C)cc1=O
693	CCN(C(=O)c1nc(N2CCOCC2)c2cnn(C)c2n1)c1ccccc1
676	COc1ccc(NS(=O)(=O)c2cc(-c3[nH]ncc3C(=O)N3CCCC3)oc2C)cc1
741	CC(C)N1CCn2c(nc3cc(C(=O)NCc4ccc(Cl)cc4)ccc32)C1=O
912	c1ccc(-c2csc(NCc3ccco3)n2)cc1
830	Cc1ccc(-n2nc(N3CCN(C(=O)c4cccs4)CC3)ccc2=O)cc1C
600	Cc1oc(-c2[nH]ncc2C(=O)N(C)C)cc1S(=O)(=O)NC(C)C
1300	COc1ccccc1N1CCN(S(=O)(=O)c2cc(-c3nc(C(C)C)cs3)cs2)CC1
808	Cc1ccc(Nc2c(-c3ccc(C)cc3)nc3c(C)cccn23)cc1
852	O=c1oc2cc(O)ccc2cc1-c1ccc(F)cc1
621	Clc1ccccc1-c1nnc(SCc2cccnc2)o1
737	Cc1nc(C)c(C(=O)NCc2c(-c3ccccc3)nc3sc(C)nn23)s1
719	CCOc1ccc(-n2nnc(-c3nc(C)c(C(=O)N4CCC(C(N)=O)CC4)s3)c2C)cc1
816	CCc1cccc(C)c1Nc1c(-c2ccccc2)nc2nc(C)cc(C)n12
811	COc1ccc(Cl)cc1NC(=O)N1CCC(OC2CCN(S(C)(=O)=O)CC2)CC1
